According to patent US20260293937A1, “SHRIMP FEED AND METHODS OF USE THEREOF” (Organicin Scientific, Inc., priority 2023, published 2026):
Values joined by “and” are separate entries in the source; they are usually repeats but may differ in a detail not shown here. Equal values may be shown once. No end group written: not given here.

Legend:
[1] = system: brine shrimp (Artemia salina); test: Brine shrimp toxicity of Nisin formulations (Example 4); format: in vivo; conditions: Nisin in citric acid buffer solution, reduced pH; data not shown
Description: This Example describes the efficacy of various Nisins: Nisin Z, Nisin A, and ImmuCell Nisin A. This experiment assessed the safety and antimicrobial efficacy of various Nisin formulations in treating Vibrio parahaemolyticus infections, a common pathogen in aquaculture environments. Brine shrimp (Artemia salina) were utilized as a model organism to simulate potential impacts on Pacific whiteleg shrimp (Penaeus vannamei).
Nisin variants (Nisin A, Nisin Z, and ImmuCell Nisin A) were dissolved in either citric acid buffer (CAB, pH 3.4) for Nisin A or dH2O for Nisin Z to make a stock solution of 4.86 mg/mL. Serial dilutions were performed to achieve the different concentrations (4.86 mg/mL to 0.005 mg/mL) for the experiments.
Artemia salina eggs were hatched in artificial seawater (Instant Ocean) under controlled conditions. Newly hatched brine shrimp were then exposed to varying concentrations of each Nisin solution in experimental tanks. A separate set of tanks was used for each type of Nisin formulation.
Control tanks (treated with either CAB or saline water) were prepared to observe the natural behavior and survival rate of Artemia salina without Nisin exposure.
Brine shrimp were divided into different tanks for exposure to varying concentrations (2.43 mg/mL, 0.608 mg/mL, 0.152 mg/mL, and 0.038 mg/mL) of Nisin A, Nisin Z, and ImmuCell Nisin A.
Mortality and behavior of the brine shrimp were recorded at 24 and 48 hours post-exposure. For the antimicrobial tests, the diameter of inhibition zones on agar plates containing the laboratory control strains were measured and recorded.

pathogenic Vibrio = test: Minimum inhibitory concentration, all Vibrio species; format: cell-based; conditions: all species of Vibrio
Description: (§1) This Example describes the materials and methods, and results of a serial dilution experiment to determine the Minimum Inhibitory Concentration (MIC) of Nisin in reducing a concentration of pathogenic Vibrio.
(§2) On the day before the experiment, Vibrio stock were prepared by sterilizing an inoculation loop, cooling the product, and extracting cells. Such extract was incubated at 37° C. for 16 to 20 hours. The density of cells was normalized to a cell density of approximately 10^7 to 10^8 CFU/mL and 100 uL lawns were prepared at a cell density of about 10^6 to 10^7 CFU using sterile glass beads. Four lawns were made so that each Nisin dilution could be tested on two identical plates.
(§3) 5 μL of two-fold dilutions (See Table 1, below) of Nisin (Immucell; 99% pure), or shrimp feed (without Nisin), citric acid, or DH20 negative controls, respectively, were spotted on the plates, which were incubated at 37° C. for 16 to 20 hours. The minimum inhibitory concentration was determined. In particular, plates were characterized based upon the presence (0) or absence (1) of Vibrio growth.

Vibrio cholerae = test: Minimum inhibitory concentration by serial two-fold dilution spotted on Vibrio lawns; format: cell-based; conditions: individual V. cholerae lines; 37° C., 16 to 20 hours
Description: as §1, §2, §3

Vibrio parahaemolyticus = test: as above; format: cell-based; conditions: individual V. parahaemolyticus lines; 37° C., 16 to 20 hours
Description: as §1, §2, §3

Vibrio alginolyticus = test: as above; format: cell-based; conditions: individual V. alginolyticus lines; 37° C., 16 to 20 hours
Description: as §1, §2, §3

Nisin: Nisin (Immucell; 99% pure) in Example 1; bacteriocin Nisin in shrimp feed at 0.84, 8.4 and 84 mg/g in Example 2 (ITSISLCTPGCKTGALMGCNMKTATCHCSIHVSK; cysteine pairing not given here; also: lantibiotic, modifications not placed; UniProt P13068 24-57, looked up)
cause of mortality in toxicity trials [1]: mortality that is not related to the peptide Nisin itself | MIC compared with negative control (pathogenic Vibrio): significantly smaller MIC than the negative control | MIC (Vibrio cholerae): 1,057.5 ug/mL and 8.3 ug/mL and 2,115.0 ug/mL and 132.2 ug/mL and 1.06 wt/v % and 0.01 wt/v % and 2.12 wt/v % and 0.13 wt/v % | MIC (Vibrio parahaemolyticus): 1,057.5 ug/mL and 33.1 ug/mL and 66.1 ug/mL and 528.8 ug/mL and 8.3 ug/mL and 1.06 wt/v % and 0.03 wt/v % and 0.07 wt/v % and 0.53 wt/v % and 0.01 wt/v % | MIC (Vibrio alginolyticus): 8.3 ug/mL and 66.1 ug/mL and 2,115.0 ug/mL and 0.01 wt/v % and 0.07 wt/v % and 2.12 wt/v %
